# Reference: patent US12692274B2, “Tetrahydroisoquinoline derivatives for the treatment of red blood disorders and inflammatory diseases” (Sanofi, priority 2020, dated 2026)
# Where “and” joins values, the source holds several entries; their conditions need not be identical. Equal values may be shown once.
# Molecular target: HIS-Keap1 full length / Biotin-Nrf2 (16-mer) (Homo sapiens, UniProt Q14145)
# Assay: biochemical
# Conditions: not given
# Sequence of HIS-Keap1 full length / Biotin-Nrf2 (16-mer) (Q14145 whole entry): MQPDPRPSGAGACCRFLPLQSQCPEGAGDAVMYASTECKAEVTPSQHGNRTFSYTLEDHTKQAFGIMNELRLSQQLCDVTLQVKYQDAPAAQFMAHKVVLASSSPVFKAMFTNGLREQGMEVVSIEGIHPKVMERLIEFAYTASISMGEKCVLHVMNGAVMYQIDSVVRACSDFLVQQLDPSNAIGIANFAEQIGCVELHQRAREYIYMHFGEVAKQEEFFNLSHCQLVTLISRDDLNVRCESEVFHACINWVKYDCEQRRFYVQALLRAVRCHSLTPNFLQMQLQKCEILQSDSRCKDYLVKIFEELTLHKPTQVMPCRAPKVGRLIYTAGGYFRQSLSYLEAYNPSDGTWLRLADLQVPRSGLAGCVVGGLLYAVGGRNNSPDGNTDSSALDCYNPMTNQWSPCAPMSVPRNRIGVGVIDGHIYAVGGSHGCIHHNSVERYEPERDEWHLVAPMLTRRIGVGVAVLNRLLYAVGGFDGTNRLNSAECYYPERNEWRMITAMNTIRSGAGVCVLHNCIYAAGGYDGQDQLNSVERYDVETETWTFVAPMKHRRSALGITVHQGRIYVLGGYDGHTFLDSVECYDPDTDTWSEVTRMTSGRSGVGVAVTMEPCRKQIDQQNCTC
row,Compound,IC50
1,Cc1cc2ccc1C(=O)N1CCc3ccc(cc3C1)C(CC(=O)O)c1cnc(nc1C)OCCCCO2 (stereo not shown) [Compound 195],62.3 nM and 69.9 nM
2,O=C(O)CC1c2ccc(nc2)OCCCCCc2cnc(nc2)C(=O)N2CCc3ccc1cc3C2 (stereo not shown) [Compound 196],130 nM and 116 nM
3,Cc1c2ccc3c1nnn3CCCCCCc1ccc(cc1)C(=O)N1CCc3ccc(cc3C1)[C@H]2CC(=O)O [Compound 202],7.2 nM and 6.8 nM and 7.1 nM
4,Cc1c2ccc3c1nnn3CCCCCc1ccc3c(c1)nc(n3C)C(=O)N1CCc3ccc(cc3C1)C2CC(=O)O (stereo not shown) [Compound 205],2.7 nM and 3 nM
5,Cc1c2ccc3c1nnn3CCCCCCc1ccc3c(c1)nc(n3C)C(=O)N1CCc3ccc(cc3C1)C2CC(=O)O (stereo not shown) [Compound 206],5.3 nM and 5.7 nM
6,Cc1c2cnc3c1nnn3CCCCCCOc1cc(F)c(c(F)c1)C(=O)N1CCc3ccc(cc3C1)[C@@H]2CC(=O)O [Compound 207],1.4 nM
7,Cc1c2cnc3c1nnn3CCCCCCOc1cc(F)c(c(F)c1)C(=O)N1CCc3ccc(cc3C1)[C@H]2CC(=O)O [Compound 208],1.1 nM
8,Cc1cc2ccc1C(=O)N1CCc3ccc(cc3C1)C(CC(=O)O)c1ccc(nc1)OCCCCO2 (stereo not shown) [Compound 209],0.4 nM and 0.5 nM

# Test system: NQO1 activation in BEAS-2B cells
# Assay: BEAS-2B cellular MTT assay of NQO1 activation, 0.3% HSA
# Format: cell-based
# Conditions: BEAS+ W, read-out: BEAS+ W EC50
# Procedure, shortened: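 MTT read-out in BEAS-2B cells grown in BEBM with SingleQuots, no GA-1000, kept below 70% confluence; plates coated with collagen, with 0.3% or 0% HSA medium, seeded to 95-100% confluency at 48 h, 37 °C, 5% CO2.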
row,Compound,EC50 [nM]
1,Cc1c2cnc3c1nnn3CCCCCCOc1cc(F)c(c(F)c1)C(=O)N1CCc3ccc(cc3C1)[C@@H]2CC(=O)O [Compound 207],57.6
2,Cc1c2cnc3c1nnn3CCCCCCOc1cc(F)c(c(F)c1)C(=O)N1CCc3ccc(cc3C1)[C@H]2CC(=O)O [Compound 208],27.2

# Same assay, conditions: BEAS+, read-out: BEAS+ EC50
row,Compound,EC50
1,Cc1c2ccc3c1nnn3CCCCCCc1ccc(cc1)C(=O)N1CCc3ccc(cc3C1)[C@H]2CC(=O)O [Compound 202],298 nM and 338 nM
2,Cc1c2ccc3c1nnn3CCCCCc1ccc3c(c1)nc(n3C)C(=O)N1CCc3ccc(cc3C1)C2CC(=O)O (stereo not shown) [Compound 205],507 nM
3,Cc1c2ccc3c1nnn3CCCCCCc1ccc3c(c1)nc(n3C)C(=O)N1CCc3ccc(cc3C1)C2CC(=O)O (stereo not shown) [Compound 206],119 nM
4,Cc1cc2ccc1C(=O)N1CCc3ccc(cc3C1)C(CC(=O)O)c1ccc(nc1)OCCCCO2 (stereo not shown) [Compound 209],903 nM

# Same assay, conditions: Homo sapiens, BEAS+ W, read-out: BEAS+ W EC50
row,Compound,EC50 [nM]
1,Cc1c2cnc3c1nnn3CCCCCCOc1cc(F)c(c(F)c1)C(=O)N1CCc3ccc(cc3C1)[C@@H]2CC(=O)O [Compound 207],65.4
2,Cc1c2cnc3c1nnn3CCCCCCOc1cc(F)c(c(F)c1)C(=O)N1CCc3ccc(cc3C1)[C@H]2CC(=O)O [Compound 208],25.1

# Same assay, conditions: Homo sapiens, BEAS+, read-out: BEAS+ EC50
row,Compound,EC50 [nM]
1,Cc1cc2ccc1C(=O)N1CCc3ccc(cc3C1)C(CC(=O)O)c1cnc(nc1C)OCCCCO2 (stereo not shown) [Compound 195],> 10000
2,O=C(O)CC1c2ccc(nc2)OCCCCCc2cnc(nc2)C(=O)N2CCc3ccc1cc3C2 (stereo not shown) [Compound 196],> 10000
3,Cc1c2ccc3c1nnn3CCCCCCc1ccc(cc1)C(=O)N1CCc3ccc(cc3C1)[C@H]2CC(=O)O [Compound 202],200
4,Cc1c2ccc3c1nnn3CCCCCc1ccc3c(c1)nc(n3C)C(=O)N1CCc3ccc(cc3C1)C2CC(=O)O (stereo not shown) [Compound 205],372
5,Cc1c2ccc3c1nnn3CCCCCCc1ccc3c(c1)nc(n3C)C(=O)N1CCc3ccc(cc3C1)C2CC(=O)O (stereo not shown) [Compound 206],89.9
6,Cc1cc2ccc1C(=O)N1CCc3ccc(cc3C1)C(CC(=O)O)c1ccc(nc1)OCCCCO2 (stereo not shown) [Compound 209],843

# Test system: NQO1 activation in BEAS-2B cells
# Assay: BEAS-2B cellular MTT assay of NQO1 activation, 0% HSA
# Format: cell-based
# Conditions: Homo sapiens, Serum Free W, read-out: BEAS EC50 (nM) Serum Free W
# Procedure, shortened: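 For the 0% HSA condition, cells were seeded into collagen plates in HSA-free medium. Culture was BEAS-2B in BEBM plus BEGM SingleQuots lacking GA-1000, held under 70% confluence, at a seeding density reaching 95-100% confluence by 48 h.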
row,Compound,EC50 [nM]
1,Cc1c2cnc3c1nnn3CCCCCCOc1cc(F)c(c(F)c1)C(=O)N1CCc3ccc(cc3C1)[C@@H]2CC(=O)O [Compound 207],23.7
2,Cc1c2cnc3c1nnn3CCCCCCOc1cc(F)c(c(F)c1)C(=O)N1CCc3ccc(cc3C1)[C@H]2CC(=O)O [Compound 208],10.1

# Same assay, conditions: Homo sapiens, serum free, read-out: BEAS EC50 (nM) serum free
row,Compound,EC50 [nM]
1,Cc1cc2ccc1C(=O)N1CCc3ccc(cc3C1)C(CC(=O)O)c1cnc(nc1C)OCCCCO2 (stereo not shown) [Compound 195],5570
2,O=C(O)CC1c2ccc(nc2)OCCCCCc2cnc(nc2)C(=O)N2CCc3ccc1cc3C2 (stereo not shown) [Compound 196],> 10000
3,Cc1c2ccc3c1nnn3CCCCCCc1ccc(cc1)C(=O)N1CCc3ccc(cc3C1)[C@H]2CC(=O)O [Compound 202],58.2
4,Cc1c2ccc3c1nnn3CCCCCc1ccc3c(c1)nc(n3C)C(=O)N1CCc3ccc(cc3C1)C2CC(=O)O (stereo not shown) [Compound 205],318
5,Cc1c2ccc3c1nnn3CCCCCCc1ccc3c(c1)nc(n3C)C(=O)N1CCc3ccc(cc3C1)C2CC(=O)O (stereo not shown) [Compound 206],64
6,Cc1cc2ccc1C(=O)N1CCc3ccc(cc3C1)C(CC(=O)O)c1ccc(nc1)OCCCCO2 (stereo not shown) [Compound 209],469

# Same assay, conditions: Serum Free W, read-out: BEAS EC50 (nM) Serum Free W
row,Compound,EC50 [nM]
1,Cc1c2cnc3c1nnn3CCCCCCOc1cc(F)c(c(F)c1)C(=O)N1CCc3ccc(cc3C1)[C@@H]2CC(=O)O [Compound 207],32.1
2,Cc1c2cnc3c1nnn3CCCCCCOc1cc(F)c(c(F)c1)C(=O)N1CCc3ccc(cc3C1)[C@H]2CC(=O)O [Compound 208],14.9

# Same assay, conditions: serum free, read-out: BEAS EC50 (nM) serum free
row,Compound,EC50
1,Cc1cc2ccc1C(=O)N1CCc3ccc(cc3C1)C(CC(=O)O)c1cnc(nc1C)OCCCCO2 (stereo not shown) [Compound 195],> 10000 nM
2,Cc1c2ccc3c1nnn3CCCCCCc1ccc(cc1)C(=O)N1CCc3ccc(cc3C1)[C@H]2CC(=O)O [Compound 202],55.5 nM and 69.1 nM
3,Cc1c2ccc3c1nnn3CCCCCc1ccc3c(c1)nc(n3C)C(=O)N1CCc3ccc(cc3C1)C2CC(=O)O (stereo not shown) [Compound 205],329 nM
4,Cc1c2ccc3c1nnn3CCCCCCc1ccc3c(c1)nc(n3C)C(=O)N1CCc3ccc(cc3C1)C2CC(=O)O (stereo not shown) [Compound 206],38.5 nM
5,Cc1cc2ccc1C(=O)N1CCc3ccc(cc3C1)C(CC(=O)O)c1ccc(nc1)OCCCCO2 (stereo not shown) [Compound 209],494 nM
